Values quoted from earlier work as cited in PMC12682717, “Radiolabelling and bioequivalence of modified Tamoxifen solid lipid nanoparticles as a targeted chemotherapeutic drug” (Drug Delivery and Translational Research, 2025).
Counter-ions that a name gives are not always drawn.

How the values were obtained:
[1] = design: method as in PMID 32151063, PMID 37906415; details: patients
[2] = no reference given

In the case of `CC/C(=C(\c1ccccc1)c1ccc(OCCN(C)C)cc1)c1ccccc1` [TAM, Tamoxifen citrate], the “side effect: depression, irritability or vaginal dryness” value [1] is given as 35%, the “side effect: hot flashes” value [1] is given as 64% and the “side effect: mood swings” value [1] is given as 6%. For the same compound, the “side effect: sleep issues” value [1] was 36%, the “side effect: weight gain” value [1] was 6% and the “biopharmaceutical categorization system (BCS) class” value [2] was “class II”.
